Structures are written as SMILES.

Type in all cases: cell-based
Assay [1] has as its system B16. Nature of the assay: IC50 of ICT in cell lines. As to conditions: Mus musculus.
Assay [2] relates to 4T1. Nature of the assay: Apoptosis rates of ICT in cell lines.
Assay [3] has as its system U937. Nature of the assay: Apoptosis rates of ICT in cell lines.

In the case of `COc1ccc(-c2oc3c(CCC(C)(C)O)c(O)cc(O)c3c(=O)c2O)cc1` [ICT, 3,5,7-trihydroxy-4′-methoxy-8-(3-hydroxy-3-methylbutyl)-flavone], half-maximal inhibition in assay [1] (IC50) required 25.8 µM. In addition, the Apoptosis rates is on record as 4.0% in assay [2] (4T1, 5 μM); 6.3% in assay [2] (4T1, 10 μM); 7.1% in assay [2] (4T1, 20 μM); 3.1% in assay [3] (U937, 5 μM); 2.6% in assay [3] (U937, 10 μM); 2.7% in assay [3] (U937, 20 μM).

The term IC50 denotes the concentration needed to halve the response being measured. A high value points to weaker potency in that assay.
